The term TGI denotes the concentration giving total growth inhibition. For orientation: GI50 means the concentration at which growth is held to half of that of the control.

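Cells were grown in 96-well plates and exposed to each compound for 48 hours at five concentrations; endpoints were interpolated linearly between bracketing concentrations, or set to the highest concentration if not reached. GI50 = concentration required for 50% inhibition of growth. At the TGI there is no net growth.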 Where only a bound is given, the exact number is not on record here.

The test system of one assay is HOP-62 NSCLC. Description: DTP human tumour cell line panel, 48 h.
The compound `N#C[C@H](OC1OC(COC2OC(CO)C(O)C(O)C2O)C(O)C(O)C1O)c1ccccc1` (some centres not stated) had a TGI greater than 250 µM.
`CCN(CC)c1ccc2cc(C(=O)Nc3ccc4[nH]c(C(=O)N5C[C@@H](CCl)c6c5cc(OC(=O)Nc5ccccc5)c5[nH]cc(C)c65)cc4c3)oc2c1`: the GI50 is 104 µM.
For the compound `Cn1c(=O)c2[nH]c(CCNC(=O)c3ccccc3)nc2n(C)c1=O`, the total growth inhibition concentration (TGI) is greater than 100 µM.
Still for that read-out and setting: for `Cc1cc(S(=O)(=O)Nc2nc3ccccc3nc2-c2cccc([N+](=O)[O-])c2)c(S)cc1Cl` the value was 39.2 µM; for `O=c1ssc(=Nc2ccccc2)n1-c1ccccc1`, 46.5 µM.
As for `NCCSS(=O)(=O)CCN`, the TGI was greater than 100 µM.
The same measure, in the same setting: for `CC(=O)Oc1cc2c(cc1OC(C)=O)OCC(c1ccccc1)C2` (configuration not stated) the value was 54.3 µM; for `OCCNCCN1CCN(CCCN2c3ccccc3Sc3ccc(C(F)(F)F)cc32)CC1`, 38.1 µM; for `O=C(O)c1cc2c(ncc3c(=O)n(-c4ccccc4)[nH]c32)s1`, greater than 100 µM.
On the same count and under the same terms, for `O=C(CCl)NNC1=Nc2ccc(Cl)cc2SC1` the value was 31.8 µM; for `CCCc1c(-c2ccccc2)[nH]c2ccccc2c1=O`, greater than 100 µM.
Still for that read-out and setting: as for `C[N+](C)(C)CCc1ccccc1`, the figure is greater than 100 µM; as for `COc1c(Br)cc2c(c1OC)C(Br)CCC(Br)(Br)C2=O` (configuration not stated), 4.81 µM.
In turn, `O=C1C=CC2(C=C1)O[C@H](Cc1ccccc1)[C@@H](Cc1ccccc1)O2` registered a TGI of 3.63 µM.
Regarding `CCCNC(=O)C(C)C1CCC2(C)C=CC(=O)C(C)=C2C1O` (configuration not stated), the concentration for total growth inhibition (TGI) is greater than 100 µM.
Same read-out and setting: for `O=C(Nc1nc2ccc([N+](=O)[O-])cc2s1)C(=O)C(C(=O)c1ccccc1F)C1OC(=O)c2ccccc21` (configuration not stated) the value was greater than 100 µM.
The same measure, in the same setting: as for `Nc1ccn(C2C=C(CO)C(O)C2O)c(=O)c1` (configuration not stated), the figure is greater than 625 µM.

In another assay the test system is K-562 leukemia. Description: DTP human tumour cell line panel, 48 h.
As to `N#C[C@H](OC1OC(COC2OC(CO)C(O)C(O)C2O)C(O)C(O)C1O)c1ccccc1` (some centres not stated), the TGI is greater than 250 µM.
Take `CCN(CC)c1ccc2cc(C(=O)Nc3ccc4[nH]c(C(=O)N5C[C@@H](CCl)c6c5cc(OC(=O)Nc5ccccc5)c5[nH]cc(C)c65)cc4c3)oc2c1`: the GI50 is 278 µM and the TGI is greater than 1000 µM.
As for `Cn1c(=O)c2[nH]c(CCNC(=O)c3ccccc3)nc2n(C)c1=O`, the total growth inhibition concentration (TGI) was greater than 100 µM.
The same measure, in the same setting: for `Cc1cc(S(=O)(=O)Nc2nc3ccccc3nc2-c2cccc([N+](=O)[O-])c2)c(S)cc1Cl` the value was greater than 100 µM; for `O=c1ssc(=Nc2ccccc2)n1-c1ccccc1`, 70.2 µM; for `NCCSS(=O)(=O)CCN`, greater than 100 µM.
Still for that read-out and setting: as for `CC(=O)Oc1cc2c(cc1OC(C)=O)OCC(c1ccccc1)C2` (configuration not stated), the figure is 80.1 µM.
On the same count and under the same terms, as for `O=C(O)c1cc2c(ncc3c(=O)n(-c4ccccc4)[nH]c32)s1`, the figure is greater than 100 µM; as for `O=C(CCl)NNC1=Nc2ccc(Cl)cc2SC1`, 5.34 µM; as for `CCCc1c(-c2ccccc2)[nH]c2ccccc2c1=O`, greater than 100 µM.
`Cc1ccc(C2OC(COCc3ccc(Cl)cc3)C(OCc3ccc(Cl)cc3)C2O)cc1` (configuration not stated) showed a total growth inhibition concentration (TGI) greater than 100 µM.
Turning to `CO/N=C(/C)c1ccc(NC(=O)CSc2nnc(-c3ccncc3)n2-c2ccccc2)cc1`, the GI50 is greater than 100 µM and the concentration for total growth inhibition (TGI) was greater than 100 µM.
Consider `C[N+](C)(C)CCc1ccccc1`, for which the total growth inhibition concentration (TGI) was greater than 100 µM.
`COc1c(Br)cc2c(c1OC)C(Br)CCC(Br)(Br)C2=O` (configuration not stated) returned a TGI of 8.76 µM.
As to `O=C1C=CC2(C=C1)O[C@H](Cc1ccccc1)[C@@H](Cc1ccccc1)O2`, the concentration for total growth inhibition (TGI) came out at 5.58 µM.
Still for that read-out and setting: as for `CCCNC(=O)C(C)C1CCC2(C)C=CC(=O)C(C)=C2C1O` (configuration not stated), the figure is greater than 100 µM; as for `O=C(Nc1nc2ccc([N+](=O)[O-])cc2s1)C(=O)C(C(=O)c1ccccc1F)C1OC(=O)c2ccccc21` (configuration not stated), greater than 100 µM.
On the same count and under the same terms, for `COc1nc(=O)n(COC(CO)CN2C(=O)c3ccccc3C2=O)cc1Cc1cccc(OCc2ccccc2)c1` (configuration not stated) the value was 60.1 µM.

Another assay deals with KM12 colon. The assay can be described thus: DTP human tumour cell line panel, 48 h.
`N#C[C@H](OC1OC(COC2OC(CO)C(O)C(O)C2O)C(O)C(O)C1O)c1ccccc1` (some centres not stated) returned a TGI greater than 250 µM.
On the same count and under the same terms, as for `CCN(CC)c1ccc2cc(C(=O)Nc3ccc4[nH]c(C(=O)N5C[C@@H](CCl)c6c5cc(OC(=O)Nc5ccccc5)c5[nH]cc(C)c65)cc4c3)oc2c1`, the figure is greater than 1000 µM.
`Cn1c(=O)c2[nH]c(CCNC(=O)c3ccccc3)nc2n(C)c1=O` showed a TGI greater than 100 µM.
Same read-out and setting: as for `Cc1cc(S(=O)(=O)Nc2nc3ccccc3nc2-c2cccc([N+](=O)[O-])c2)c(S)cc1Cl`, the figure is 31.3 µM.
Same read-out and setting: for `O=c1ssc(=Nc2ccccc2)n1-c1ccccc1` the value was greater than 100 µM.
With `NCCSS(=O)(=O)CCN`, the TGI was greater than 100 µM.
The compound `CC(=O)Oc1cc2c(cc1OC(C)=O)OCC(c1ccccc1)C2` (configuration not stated) returned a TGI of 55.3 µM.
Same read-out and setting: as for `OCCNCCN1CCN(CCCN2c3ccccc3Sc3ccc(C(F)(F)F)cc32)CC1`, the figure is 45.1 µM; as for `O=C(O)c1cc2c(ncc3c(=O)n(-c4ccccc4)[nH]c32)s1`, greater than 100 µM.
Still for that read-out and setting: as for `O=C(CCl)NNC1=Nc2ccc(Cl)cc2SC1`, the figure is 9.94 µM.
On the same count and under the same terms, as for `CCCc1c(-c2ccccc2)[nH]c2ccccc2c1=O`, the figure is 88.2 µM; as for `Cc1ccc(C2OC(COCc3ccc(Cl)cc3)C(OCc3ccc(Cl)cc3)C2O)cc1` (configuration not stated), 71.2 µM.
Take `CO/N=C(/C)c1ccc(NC(=O)CSc2nnc(-c3ccncc3)n2-c2ccccc2)cc1`: the GI50 is greater than 100 µM and the TGI is greater than 100 µM.
The compound `C[N+](C)(C)CCc1ccccc1` showed a TGI greater than 100 µM.
The same measure, in the same setting: for `COc1c(Br)cc2c(c1OC)C(Br)CCC(Br)(Br)C2=O` (configuration not stated) the value was 14.6 µM.
Still for that read-out and setting: for `O=C1C=CC2(C=C1)O[C@H](Cc1ccccc1)[C@@H](Cc1ccccc1)O2` the value was 4.51 µM; for `CCCNC(=O)C(C)C1CCC2(C)C=CC(=O)C(C)=C2C1O` (configuration not stated), greater than 100 µM.
Still for that read-out and setting: for `O=C(Nc1nc2ccc([N+](=O)[O-])cc2s1)C(=O)C(C(=O)c1ccccc1F)C1OC(=O)c2ccccc21` (configuration not stated) the value was greater than 100 µM; for `Nc1ccn(C2C=C(CO)C(O)C2O)c(=O)c1` (configuration not stated), greater than 625 µM; for `COc1nc(=O)n(COC(CO)CN2C(=O)c3ccccc3C2=O)cc1Cc1cccc(OCc2ccccc2)c1` (configuration not stated), 91.3 µM.

A further assay relates to LOX IMVI melanoma. Description: DTP human tumour cell line panel, 48 h.
`N#C[C@H](OC1OC(COC2OC(CO)C(O)C(O)C2O)C(O)C(O)C1O)c1ccccc1` (some centres not stated) returned a TGI greater than 250 µM.
Consider `CCN(CC)c1ccc2cc(C(=O)Nc3ccc4[nH]c(C(=O)N5C[C@@H](CCl)c6c5cc(OC(=O)Nc5ccccc5)c5[nH]cc(C)c65)cc4c3)oc2c1`, for which the GI50 is 295 µM.
In turn, `Cn1c(=O)c2[nH]c(CCNC(=O)c3ccccc3)nc2n(C)c1=O` displayed a concentration for total growth inhibition (TGI) greater than 100 µM.
On the same count and under the same terms, as for `O=c1ssc(=Nc2ccccc2)n1-c1ccccc1`, the figure is 50.6 µM; as for `NCCSS(=O)(=O)CCN`, greater than 100 µM; as for `CC(=O)Oc1cc2c(cc1OC(C)=O)OCC(c1ccccc1)C2` (configuration not stated), 46 µM.
`OCCNCCN1CCN(CCCN2c3ccccc3Sc3ccc(C(F)(F)F)cc32)CC1` registered a concentration for total growth inhibition (TGI) of 28.5 µM.
`O=C(O)c1cc2c(ncc3c(=O)n(-c4ccccc4)[nH]c32)s1` returned a TGI greater than 100 µM.
Still for that read-out and setting: as for `O=C(CCl)NNC1=Nc2ccc(Cl)cc2SC1`, the figure is 2.48 µM.
The same measure, in the same setting: for `CCCc1c(-c2ccccc2)[nH]c2ccccc2c1=O` the value was 43.5 µM.
With `C[N+](C)(C)CCc1ccccc1`, the TGI was greater than 100 µM.
The same measure, in the same setting: as for `COc1c(Br)cc2c(c1OC)C(Br)CCC(Br)(Br)C2=O` (configuration not stated), the figure is 1.58 µM.
For the compound `O=C1C=CC2(C=C1)O[C@H](Cc1ccccc1)[C@@H](Cc1ccccc1)O2`, the total growth inhibition concentration (TGI) was found to be 0.824 µM.
Same read-out and setting: as for `CCCNC(=O)C(C)C1CCC2(C)C=CC(=O)C(C)=C2C1O` (configuration not stated), the figure is greater than 100 µM; as for `O=C(Nc1nc2ccc([N+](=O)[O-])cc2s1)C(=O)C(C(=O)c1ccccc1F)C1OC(=O)c2ccccc21` (configuration not stated), greater than 100 µM.
On the same count and under the same terms, as for `Nc1ccn(C2C=C(CO)C(O)C2O)c(=O)c1` (configuration not stated), the figure is greater than 625 µM.
The compound `COc1nc(=O)n(COC(CO)CN2C(=O)c3ccccc3C2=O)cc1Cc1cccc(OCc2ccccc2)c1` (configuration not stated) had a TGI of 41.5 µM.

For the next assay, the system named is MALME-3M melanoma. The assay can be described thus: DTP human tumour cell line panel, 48 h.
On to `N#C[C@H](OC1OC(COC2OC(CO)C(O)C(O)C2O)C(O)C(O)C1O)c1ccccc1` (some centres not stated), for which the TGI was greater than 250 µM.
For the compound `CCN(CC)c1ccc2cc(C(=O)Nc3ccc4[nH]c(C(=O)N5C[C@@H](CCl)c6c5cc(OC(=O)Nc5ccccc5)c5[nH]cc(C)c65)cc4c3)oc2c1`, the GI50 is 510 µM and the TGI is greater than 1000 µM.
In the case of `Cn1c(=O)c2[nH]c(CCNC(=O)c3ccccc3)nc2n(C)c1=O`, the TGI is greater than 100 µM.
Same read-out and setting: for `Cc1cc(S(=O)(=O)Nc2nc3ccccc3nc2-c2cccc([N+](=O)[O-])c2)c(S)cc1Cl` the value was 37.3 µM.
For the compound `O=c1ssc(=Nc2ccccc2)n1-c1ccccc1`, the TGI is greater than 100 µM.
The same measure, in the same setting: as for `NCCSS(=O)(=O)CCN`, the figure is greater than 100 µM; as for `CC(=O)Oc1cc2c(cc1OC(C)=O)OCC(c1ccccc1)C2` (configuration not stated), 37.9 µM; as for `OCCNCCN1CCN(CCCN2c3ccccc3Sc3ccc(C(F)(F)F)cc32)CC1`, 45 µM.
In turn, `O=C(O)c1cc2c(ncc3c(=O)n(-c4ccccc4)[nH]c32)s1` gave a TGI greater than 100 µM.
The compound `O=C(CCl)NNC1=Nc2ccc(Cl)cc2SC1` displayed a concentration for total growth inhibition (TGI) of 3.31 µM.
The same measure, in the same setting: as for `CCCc1c(-c2ccccc2)[nH]c2ccccc2c1=O`, the figure is greater than 100 µM.
Same read-out and setting: for `C[N+](C)(C)CCc1ccccc1` the value was greater than 100 µM; for `COc1c(Br)cc2c(c1OC)C(Br)CCC(Br)(Br)C2=O` (configuration not stated), 10.8 µM.
The compound `O=C1C=CC2(C=C1)O[C@H](Cc1ccccc1)[C@@H](Cc1ccccc1)O2` returned a TGI of 4.77 µM.

Another assay concerns OVCAR-3 ovarian. Description: DTP human tumour cell line panel, 48 h.
`N#C[C@H](OC1OC(COC2OC(CO)C(O)C(O)C2O)C(O)C(O)C1O)c1ccccc1` (some centres not stated): the TGI is greater than 250 µM.
Same read-out and setting: as for `CCN(CC)c1ccc2cc(C(=O)Nc3ccc4[nH]c(C(=O)N5C[C@@H](CCl)c6c5cc(OC(=O)Nc5ccccc5)c5[nH]cc(C)c65)cc4c3)oc2c1`, the figure is greater than 1000 µM.
The same measure, in the same setting: as for `Cn1c(=O)c2[nH]c(CCNC(=O)c3ccccc3)nc2n(C)c1=O`, the figure is greater than 100 µM; as for `Cc1cc(S(=O)(=O)Nc2nc3ccccc3nc2-c2cccc([N+](=O)[O-])c2)c(S)cc1Cl`, 30.6 µM.
Still for that read-out and setting: for `O=c1ssc(=Nc2ccccc2)n1-c1ccccc1` the value was 53.1 µM; for `NCCSS(=O)(=O)CCN`, greater than 100 µM.
`CC(=O)Oc1cc2c(cc1OC(C)=O)OCC(c1ccccc1)C2` (configuration not stated) displayed a concentration for total growth inhibition (TGI) of 58.9 µM.

The values are drawn from PubChem BioAssay (NCI).
